Measurements taken from patent publication US8987312B2, “Alpha-keto heterocycles as FAAH inhibitors” (The Scripps Research Institute, priority 2008, dated 2015).
Like-named read-outs stand apart in the source and are kept apart here.

Assays:
[1] = molecular target: T1, recombinant human fatty acid amide hydrolase (Homo sapiens, UniProt O00519); assay: FAAH inhibition enzyme assay, human enzyme (COS-7 lysate); type: biochemical; settings: Table 3
T1 construct: The full-length human FAAH (hFAAH) was expressed in COS-7 cells as described; expressed in transfected cells; host or cells: COS-7
T1 sequence (O00519 1-579): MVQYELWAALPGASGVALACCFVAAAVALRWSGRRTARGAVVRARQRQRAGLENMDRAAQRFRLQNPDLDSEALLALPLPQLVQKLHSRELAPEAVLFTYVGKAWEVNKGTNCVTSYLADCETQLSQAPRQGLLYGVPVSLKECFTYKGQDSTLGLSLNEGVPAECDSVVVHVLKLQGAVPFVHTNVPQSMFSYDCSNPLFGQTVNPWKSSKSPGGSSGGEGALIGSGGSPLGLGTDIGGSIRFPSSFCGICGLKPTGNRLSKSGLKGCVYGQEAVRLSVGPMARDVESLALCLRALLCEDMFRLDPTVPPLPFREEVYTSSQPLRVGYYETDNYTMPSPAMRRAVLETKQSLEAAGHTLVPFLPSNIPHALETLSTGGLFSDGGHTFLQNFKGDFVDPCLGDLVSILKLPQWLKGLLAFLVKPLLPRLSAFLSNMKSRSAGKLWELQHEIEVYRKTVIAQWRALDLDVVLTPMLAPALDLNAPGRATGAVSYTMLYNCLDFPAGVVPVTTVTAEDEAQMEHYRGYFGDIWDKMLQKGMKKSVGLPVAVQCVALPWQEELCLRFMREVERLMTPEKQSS
Source text: (§1) The purified recombinant rFAAH was used in the inhibition assays unless otherwise indicated.
(§2) The ^14C-labeled oleamide (substrate) and oleic acid (product) were extracted with EtOAc and analyzed by TLC.

[2] = molecular target: T2, KIAA1363 (Mus musculus, UniProt Q8BLF1); assay: Activity based protein profiling (proteome-wide selectivity screening, FP-Rh), KIAA1363; type: biochemical; settings: Table 4; for IC50: activity based protein profiling; for KIAA1363 selectivity (value in parentheses): ratio KIAA1363 IC50 / FAAH IC50 (fold selectivity for FAAH)
T2 construct: with FP-Rh in brain and heart membrane proteome; from tissue; host or cells: brain and heart membrane proteome
T2 sequence (Q8BLF1 1-408): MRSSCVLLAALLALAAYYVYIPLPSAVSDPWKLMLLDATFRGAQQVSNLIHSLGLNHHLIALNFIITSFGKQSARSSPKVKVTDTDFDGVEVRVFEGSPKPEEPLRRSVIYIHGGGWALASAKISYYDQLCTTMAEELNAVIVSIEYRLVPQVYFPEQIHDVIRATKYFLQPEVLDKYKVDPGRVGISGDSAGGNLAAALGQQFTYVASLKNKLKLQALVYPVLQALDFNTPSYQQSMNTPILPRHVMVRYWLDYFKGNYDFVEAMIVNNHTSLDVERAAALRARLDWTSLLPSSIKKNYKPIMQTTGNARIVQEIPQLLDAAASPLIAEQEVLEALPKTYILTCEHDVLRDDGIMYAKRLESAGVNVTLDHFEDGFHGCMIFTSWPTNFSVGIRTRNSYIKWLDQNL
Source text: (§3) Enzyme targets such as FAAH, KIAA1363, and TGH are labeled at the left margin.

[3] = molecular target: T3, purified recombinant rat FAAH (Rattus norvegicus, UniProt P97612); assay: FAAH inhibition enzyme assay (14C-oleamide hydrolysis, Dixon plot), rat enzyme; type: biochemical
T3 construct: The truncated rat FAAH (rFAAH) was expressed in E. coli and purified as described; made in house; host or cells: Escherichia coli
T3 sequence (P97612 30-579 limits assumed): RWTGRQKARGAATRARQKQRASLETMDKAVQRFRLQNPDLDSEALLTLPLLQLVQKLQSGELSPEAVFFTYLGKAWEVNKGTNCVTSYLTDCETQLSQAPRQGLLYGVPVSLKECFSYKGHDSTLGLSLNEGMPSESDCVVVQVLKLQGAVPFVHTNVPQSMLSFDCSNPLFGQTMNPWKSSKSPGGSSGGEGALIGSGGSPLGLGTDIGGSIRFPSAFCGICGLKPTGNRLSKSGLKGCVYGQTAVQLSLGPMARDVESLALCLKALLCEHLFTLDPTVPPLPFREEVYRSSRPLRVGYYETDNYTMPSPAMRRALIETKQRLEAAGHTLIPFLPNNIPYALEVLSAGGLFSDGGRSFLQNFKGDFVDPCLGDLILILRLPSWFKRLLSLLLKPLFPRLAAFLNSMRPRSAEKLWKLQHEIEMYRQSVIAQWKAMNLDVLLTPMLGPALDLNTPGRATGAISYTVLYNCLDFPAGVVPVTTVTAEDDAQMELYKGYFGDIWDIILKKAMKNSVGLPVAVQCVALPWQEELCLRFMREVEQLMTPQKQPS
Source text: as §1, §2

[4] = molecular target: T4, FAAH (Mus musculus, UniProt O08914); assay: Activity based protein profiling (proteome-wide selectivity screening, FP-Rh), FAAH; type: biochemical; settings: Table 4
T4 construct: with FP-Rh in brain and heart membrane proteome; from tissue; host or cells: brain and heart membrane proteome
T4 sequence (O08914 1-579): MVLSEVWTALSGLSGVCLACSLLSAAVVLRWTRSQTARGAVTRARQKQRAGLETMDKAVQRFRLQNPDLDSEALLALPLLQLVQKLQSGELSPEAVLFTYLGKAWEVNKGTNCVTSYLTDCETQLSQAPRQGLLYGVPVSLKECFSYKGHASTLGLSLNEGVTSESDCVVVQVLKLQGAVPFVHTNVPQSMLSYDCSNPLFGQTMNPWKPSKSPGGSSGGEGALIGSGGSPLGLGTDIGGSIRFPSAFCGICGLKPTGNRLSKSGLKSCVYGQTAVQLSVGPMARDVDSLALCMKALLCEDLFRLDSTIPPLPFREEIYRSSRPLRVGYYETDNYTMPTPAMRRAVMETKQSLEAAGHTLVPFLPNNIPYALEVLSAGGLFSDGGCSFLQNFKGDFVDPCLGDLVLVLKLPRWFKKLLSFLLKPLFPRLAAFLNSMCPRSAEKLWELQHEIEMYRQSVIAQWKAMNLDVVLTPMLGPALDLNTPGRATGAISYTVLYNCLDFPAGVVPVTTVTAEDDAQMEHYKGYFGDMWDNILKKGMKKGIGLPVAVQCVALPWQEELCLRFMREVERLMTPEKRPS
Source text: as §3

[5] = molecular target: T5, triacylglycerol hydrolase (TGH) (Mus musculus, UniProt Q8VCT4); assay: Activity based protein profiling (proteome-wide selectivity screening, FP-Rh), TGH; type: biochemical; settings: Table 4; for IC50: activity based protein profiling; for TGH selectivity (value in parentheses): ratio TGH IC50 / FAAH IC50 (fold selectivity for FAAH)
T5 construct: with FP-Rh in brain and heart membrane proteome; from tissue; host or cells: brain and heart membrane proteome
T5 sequence (Q8VCT4 19-565): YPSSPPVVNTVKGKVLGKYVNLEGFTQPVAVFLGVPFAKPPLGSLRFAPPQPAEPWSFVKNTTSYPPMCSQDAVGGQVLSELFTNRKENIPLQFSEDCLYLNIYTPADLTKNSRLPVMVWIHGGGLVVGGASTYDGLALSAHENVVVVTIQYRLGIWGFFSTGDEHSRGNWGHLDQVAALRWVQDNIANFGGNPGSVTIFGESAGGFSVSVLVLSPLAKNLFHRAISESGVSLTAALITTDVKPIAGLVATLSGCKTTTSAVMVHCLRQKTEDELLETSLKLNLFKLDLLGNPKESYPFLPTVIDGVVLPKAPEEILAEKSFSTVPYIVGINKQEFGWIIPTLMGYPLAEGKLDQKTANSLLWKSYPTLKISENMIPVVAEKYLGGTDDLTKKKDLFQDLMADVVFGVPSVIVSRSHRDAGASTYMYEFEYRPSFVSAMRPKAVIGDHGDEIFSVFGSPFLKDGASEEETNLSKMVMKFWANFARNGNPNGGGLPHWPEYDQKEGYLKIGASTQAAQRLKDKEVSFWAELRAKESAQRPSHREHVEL
Source text: as §3

[6] = CREAE mice; cited from earlier work
[7] = rats; cited from earlier work
[8] = rats; cited from earlier work; remark: listed apart in the source
[9] = system: FAAH; settings: cited from earlier work
[10] = rats; cited from earlier work; remark: listed apart in the source
[11] = rat; cited from earlier work
[12] = rats; cited from earlier work; remark: listed apart in the source
[13] = Table 2, rat FAAH, pH 9 assay conditions, read-out: Ki
[14] = Table 3, rat FAAH, read-out: Ki, μM (rat)

Row | SMILES | Ki [1] | IC50 [2] | KIAA1363 selectivity (value in parentheses) [2] | IC50 [4] | IC50 [5] | TGH selectivity (value in parentheses) [5] | Ki [3, 13] | Ki [3, 14] | Ki ([3]; Table 4, read-out: FAAH Ki) | other results
1 | O=C(CCCCCCc1ccccc1)c1nnc(-c2ccccn2)o1 [8b, 7-Phenyl-1-(5-(pyridin-2-yl)-1,3,4-oxadiazol-2-yl)-heptan-1-one] | 0.0012 µM | 90 µM | 90000 |  |  | 140 | 0.00029 µM | 0.00029 µM | 0.00029 µM | 
2 | O=C(CCCCCCc1ccccc1)c1nnc(-c2ccccn2)s1 [12b, 7-Phenyl-1-(5-(pyridin-2-yl)-1,3,4-thiadiazol-2-yl)-heptan-1-one] | 0.003 µM | > 100 µM | > 3300 | 0.03 µM | 4.5 µM | 150 | 0.0008 µM | 0.0008 µM | 0.0008 µM | 
3 | CCCCCCCCCCCCCCCCS(=O)(=O)F [AM374] |  |  |  |  |  |  |  |  |  | spasticity [6]: significantly reduce spasticity
4 | Cc1nc(-c2ccccc2)c(-c2ccccc2)n1CCCCCCNC(=O)Oc1ccccc1F [BMS-1] |  |  |  |  |  |  |  |  |  | analgesic effect [7]: analgesic effect; analgesic effect [8]: analgesic effect
5 | O=C(CCCCCCc1ccccc1)c1ncc(-c2ccccn2)o1 [OL-135] |  |  |  |  |  |  |  |  |  | FAAH inhibition (in words) [9]: potent inhibitor; analgesic activity, tail emersion [10]: analgesic activity; analgesic efficacy / activity, hot plate [11]: analgesic activity
6 | NC(=O)c1cccc(-c2cccc(OC(=O)NC3CCCCC3)c2)c1 [URB-597] |  |  |  |  |  |  |  |  |  | analgesic efficacy / activity, hot plate [11]: analgesic efficacy; efficacy in model of anxiety [12]: efficacy

The next lines start with results.

Row | Ki [1] | IC50 [2] | KIAA1363 selectivity (value in parentheses) [2] | IC50 [4] | IC50 [5] | TGH selectivity (value in parentheses) [5] | Ki [3, 13] | Ki [3, 14] | Ki ([3]; Table 4, read-out: FAAH Ki) | SMILES | other results
7 | 0.026 µM | > 100 µM | > 1000 | 0.1 µM | > 100 µM | > 1000 |  |  |  | O=C(O)c1cccc(-c2cnc(C(=O)CCCCCCc3ccccc3)o2)n1 [7g] | Ki ([3]; pH=7.4 (physiological pH), read-out: Ki): 0.0103 µM; Ki ([3]; pH=8, read-out: Ki): 0.0145 µM
8 | 0.00092 µM | 30 µM | 10000 | 0.003 µM | 0.03 µM | 10 | 0.00034 µM | 0.00034 µM | 0.00034 µM | O=C(CCCCCCc1ccccc1)c1nc(-c2ccccn2)no1 [9b, 7-Phenyl-1-(3-(pyridin-2-yl)-1,2,4-oxadiazol-5-yl)-heptan-1-one] | 
9 | 0.016 µM | > 100 µM | > 14000 | 0.007 µM | 0.4 µM | 60 | 0.0011 µM | 0.0011 µM | 0.0011 µM | O=C(CCCCCCc1ccccc1)c1noc(-c2ccccn2)n1 [10b, 7-Phenyl-1-(5-(pyridin-2-yl)-1,2,4-oxadiazol-3-yl)-heptan-1-one] | 
10 | 0.11 µM | > 100 µM | > 1400 | 0.07 µM | > 100 µM | > 1400 | 0.053 µM | 0.053 µM | 0.053 µM | O=C(O)c1cccc(-c2nc(C(=O)CCCCCCc3ccccc3)no2)n1 [10g, 6-(3-(7-Phenylheptanoyl)-1,2,4-oxadiazol-5-yl)-picolinic Acid] | 
